In US20260216226A1, “TRIPLE COMBINED THERAPY INHIBITING EGFR, RAF1 AND STAT3 AGAINST PANCREATIC DUCTAL ADENOCARCINOMA” (FUNDACION DEL SECTOR PUBLICO ESTATAL CENTRO NACIONAL DE …, priority 2023, published 2026):

Assays:
STAT3 [1] = conditions: Kras mutant pancreatic and colon cancer cells; cited from earlier work
[2] = test system: Egfr^lox/lox; Raf1^lox/lox PDAC cells; experiment: Colony formation assay of NR PDAC cells infected with Adeno-GFP or Adeno-CRE; assay type: cell-based; conditions: 1 μM SD-36, 10 days
Method: FIG. 1. Colony formation assay of Egfr^lox/lox; Raf1^lox/lox PDAC cells infected with Adeno-GFP and Adeno-CRE viral particles in combination with small-hairpin RNA (shRNA) against STAT3 and Scr (empty vector) as control. 5000 cells were seeded for 10 days. B. Western blot analysis of the expression of EGFR, RAF1 and STAT3 of cell-lysate extracts. GAPDH was used as loading control.
(§1) FIG. 2. A. Colony formation assay of Egfr^lox/lox; Raf1^lox/lox PDAC cells infected with Adeno-GFP and Adeno-CRE viral particles in combination with treatment with 1 μM SD-36. 5000 cells were seeded for 10 days and culture medium was changed every day. B. Western blot analysis of the expression of STAT3 of cell-lysate extracts. GAPDH was used as loading control.
(§2) Silencing of Egfr, Raf1 and Stat3 was mediated with the lentiviral short hairpin RNA (shRNA) plasmids TRCN0000055218, TRCN0000012628 and TRCN0000071453 respectively. The non-target shRNA vector was used as control. The pharmacological treatments were conducted with the following agents: Afatinib (20 mg/kg, daily), SD-36 (50 mg/kg, daily).
The expression of STAT3 was targeted by shRNAs after genetic deletion of Egfr and Raf1 in NR cells by Adeno-GFP and Adeno-GFP-CRE infection. […]

STAT3 [3] = target: T1, STAT3 (Mus musculus, UniProt P42227); experiment: Western blot analysis of STAT3 expression in cell-lysate extracts; assay type: cell-based; conditions: NR PDAC cells treated with SD-36; GAPDH loading control
T1 construct: Western blot analysis of the expression of STAT3 of cell-lysate extracts; endogenous in cells; host or cells: Egfr lox/lox; Raf1 lox/lox PDAC (NR) tumor cells infected with Adeno-GFP or Adeno-CRE
Method: as §1
The expression of STAT3 was targeted by shRNAs after genetic deletion of Egfr and Raf1 in NR cells by Adeno-GFP and Adeno-GFP-CRE infection. […] NR tumor cells, previously infected with Adeno-GFP and Adeno-GFP-CRE virus to eliminate the EGFR and the Raf1 (floxed targets), were treated with SD-36 for 10 days in a colony formation assay. Elimination of the targets was very efficient.

[4] = test system: NR PDACs (tumors of big sizes); experiment: Tumor growth monitored by ultrasound in genetically engineered mice; assay type: in vivo, mouse; conditions: NR triple: SD-36 50 mg/kg daily added to tamoxifen and Afatinib 20 mg/kg daily
Method: as §2
It was also included in the combined treatment Afatinib (a tyrosine receptor kinase inhibitor against EGFR) and SD-36 (PROTAC degrader against STAT3).

[5] = test system: pancreatic ductal adenocarcinoma (PDAC); conditions: adjuvant treatment, patients with resectable disease; cited from earlier work

T1 sequence (P42227 whole entry): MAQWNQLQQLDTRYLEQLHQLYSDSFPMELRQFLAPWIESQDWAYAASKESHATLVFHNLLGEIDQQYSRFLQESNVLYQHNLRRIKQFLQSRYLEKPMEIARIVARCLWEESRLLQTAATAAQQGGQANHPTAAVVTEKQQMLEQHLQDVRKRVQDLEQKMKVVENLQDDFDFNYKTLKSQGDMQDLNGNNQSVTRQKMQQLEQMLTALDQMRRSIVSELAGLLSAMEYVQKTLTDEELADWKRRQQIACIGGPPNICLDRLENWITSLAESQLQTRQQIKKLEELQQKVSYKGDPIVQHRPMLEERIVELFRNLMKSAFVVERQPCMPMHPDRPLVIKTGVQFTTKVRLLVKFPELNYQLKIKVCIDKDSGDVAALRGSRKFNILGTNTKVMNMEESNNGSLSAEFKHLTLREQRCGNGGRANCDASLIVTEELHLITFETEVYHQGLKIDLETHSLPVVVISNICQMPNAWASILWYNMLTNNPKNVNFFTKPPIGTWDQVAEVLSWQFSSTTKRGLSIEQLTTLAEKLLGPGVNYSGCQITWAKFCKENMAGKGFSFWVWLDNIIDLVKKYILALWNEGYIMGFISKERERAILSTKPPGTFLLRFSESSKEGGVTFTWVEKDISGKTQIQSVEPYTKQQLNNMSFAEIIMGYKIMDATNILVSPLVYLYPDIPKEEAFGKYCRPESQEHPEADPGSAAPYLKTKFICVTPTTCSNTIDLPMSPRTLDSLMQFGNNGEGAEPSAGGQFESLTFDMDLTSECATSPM

Compound: Cn1cnc2c(F)c(Nc3ccc(Br)cc3Cl)c(C(=O)NOCCO)cc21 [AZD6244]
- STAT3 activation (STAT3 [1]): significantly activated

Compound: COc1cccc(-c2cc(=O)c3ccccc3o2)c1N [PD98059]
- STAT3 activation (STAT3 [1]): significantly activated

Compound: NC(=O)CC[C@H](NC(=O)[C@@H]1CC[C@@H]2CCN(C(=O)CCCCCC#Cc3cccc4c3CN(C3CCC(=O)NC3=O)C4=O)C[C@H](NC(=O)c3cc4cc(C(F)(F)P(=O)(O)O)ccc4[nH]3)C(=O)N21)C(=O)NC(c1ccccc1)c1ccccc1 (stereo partly shown) [SD-36]
- growth of NR cells that express Egfr and Raf1 (toxicity) ([2]; Adeno-GFP infected NR cells, versus vehicle control): grew similarly as the vehicle control
- colony formation / cell death of NR tumor cells ([2]; NR cells after deletion of Egfr and Raf1 (Adeno-CRE)): cell death of NR tumor cells
- STAT3 degradation (STAT3 [3]): effectively degraded STAT3
- tumor growth [4]: significant delay and slight reduction of tumor growth

Compound: FOLFIRINOX
- median overall survival (OS) [5]: 54 months
